≈ marks a conversion by molar mass, not a printed value. Where two headings read alike, the source gives them in different places.

Holding throughout (format): cell-based
One experiment relates to E. coli ΔTolC. In words: microbe, parasite or virus in culture. Here is the method: (§1) Minimum inhibitory concentrations (MICs) were determined by broth microdilution method or agar dilution method following the Clinical and Laboratory Standards Institute guidelines. Standard bacterial strains were obtained from American Type Culture Collection (ATCC). Other bacterial strains were obtained from hospitals and commercial sources, so noted in Table 11. […] Specialized procedures were employed for streptococcal and anaerobic strains. All other bacterial strains were sub-cultured on blood agar plates (tryptic soy agar with 5% sheep blood, Hardy Diagnostics) and incubated overnight at 35° C. […] Suspensions were further diluted to obtain a final inoculum of 5×10^5 CFU/mL for broth microdilution experiments.

The test system of experiment [1] is broad panel of different clinical isolates. In words: microbe, parasite or virus in culture. Here is the method: as §1
For another experiment, the system named is S. aureus MMX 3035 cErmA. Nature of the experiment: MIC (broth microdilution or agar dilution, CLSI). To be noted: Staphylococcus aureus, MMX3035CERMA; S. aureus HAV#031, MMX 3035; cErmA; read-out: MIC. Here is the method:
as §1
For orientation: Dilution methods test growth across graded concentrations, often in twofold steps.

The test system of another experiment is S. pyogenes ATCC 19615. In words: MIC (broth microdilution or agar dilution, CLSI). How it is done: as §1
The next experiment concerns E. faecalis ATCC 29212. Nature of the experiment: MIC (broth microdilution or agar dilution, CLSI). Here is the method:
as §1

In another experiment the test system is E. coli LptD. Nature of the experiment: MIC (broth microdilution or agar dilution, CLSI). How it is done: as §1
The subject of the next experiment is S. aureus ATCC 29213. Nature of the experiment: MIC (broth microdilution or agar dilution, CLSI). Here is the method: as §1
A further experiment relates to S. pneumoniae ATCC 49619. Nature of the experiment: MIC (broth microdilution or agar dilution, CLSI). Here is the method: as §1
The subject of another experiment is K. oxytoca Clinical. In words: MIC (broth microdilution or agar dilution, CLSI). How it is done: as §1
The test system of a further experiment is E. coli ATCC 25922. In words: MIC (broth microdilution or agar dilution, CLSI). Here is the method: as §1
The next experiment concerns P. aeruginosa ATCC 27853. In words: MIC (broth microdilution or agar dilution, CLSI). To be noted: P. aeruginosa ATCC 27853. Here is the method:
(§2) Minimum inhibitory concentrations (MICs) were determined by broth microdilution method or agar dilution method following the Clinical and Laboratory Standards Institute guidelines. Standard bacterial strains were obtained from American Type Culture Collection (ATCC). Other bacterial strains were obtained from hospitals and commercial sources, so noted in Table 11. Before the start of the MIC experiment, standard and test compound stock solutions were prepared in dimethyl sulfoxide (DMSO, Aldrich D2650) at a stock concentration of 5,120 μg/mL. The compound concentration range typically employed for each experiment was 128-0.06 μg/mL (2.5% final DMSO concentration). Clindamycin was used as a comparator in all experiments and each experiment was performed in triplicate. Specialized procedures were employed for streptococcal and anaerobic strains. All other bacterial strains were sub-cultured on blood agar plates (tryptic soy agar with 5% sheep blood, Hardy Diagnostics) and incubated overnight at 35° C. Organisms were suspended in cation-adjusted Mueller-Hinton broth (CaMHB, BD 212322) and optical density was adjusted to 0.5 McFarland standard. Suspensions were further diluted to obtain a final inoculum of 5×10^5 CFU/mL for broth microdilution experiments.

Another experiment has as its system S. aureus cErmA. In words: MIC (broth microdilution or agar dilution, CLSI). To be noted: S. aureus cErmA. How it is done: as §2
The next experiment deals with E. faecium Clinical VRE. Nature of the experiment: MIC (broth microdilution or agar dilution, CLSI). To be noted: E. faecium Clinical VRE. How it is done:
as §2

For another experiment, the system named is A. baumannii ATCC 19606. Nature of the experiment: MIC (broth microdilution or agar dilution, CLSI). To be noted: A. baumannii ATCC 19606. How it is done:
as §1

[2] abbreviates: Pseudomonas aeruginosa, ATCC27853, read-out: MIC.
Setting [3] is: Staphylococcus aureus, read-out: MIC.
Where [4] appears, read: Enterococcus faecium, read-out: MIC.
Setting [5] is: Escherichia coli, E. coli ΔTolC.
[6] abbreviates: Streptococcus pyogenes, ATCC19615, S. pyogenes ATCC 19615, read-out: MIC.
Setting [7] is: Enterococcus faecalis, ATCC29212, E. faecalis ATCC 29212, read-out: MIC.
The mark [8] stands for this setting: Escherichia coli, E. coli LptD, read-out: MIC.
[9] abbreviates: Staphylococcus aureus, ATCC29213, S. aureus ATCC 29213, read-out: MIC.
The mark [10] stands for this setting: Streptococcus pneumoniae, ATCC49619, S. pneumoniae ATCC 49619, read-out: MIC.
The mark [11] stands for this setting: Klebsiella oxytoca, K. oxytoca Clinical, read-out: MIC.
Setting [12] is: Escherichia coli, ATCC25922, E. coli ATCC 25922, read-out: MIC.
Setting [13] is: Acinetobacter baumannii, ATCC19606, read-out: MIC.

For the compound `O=C(N[C@H](CO)[C@H](O)c1ccc([N+](=O)[O-])cc1)C(Cl)Cl` [Chloramphenicol], the MIC against E. coli ΔTolC (Escherichia coli, E. coli HAV#038, ΔTolC) was 8 µg/mL (≈ 24.8 µM); in experiment [1] (Enterococcus faecalis, VRE, E. faecalis HAV#251, Clinical VRE), 4 µg/mL (≈ 12.4 µM); in experiment [1] (Enterococcus faecium, VRE, E. faecium HAV#318, VanA), 8 µg/mL (≈ 24.8 µM); in experiment [1] (Klebsiella pneumoniae, K. pneumoniae HAV#041, Clinical, KPC) it was more than 128 µg/mL; in experiment [1] (Staphylococcus aureus, S. aureus HAV#216, Clinical, cfr), more than 128 µg/mL; in experiment [1] (Staphylococcus aureus, S. aureus HAV#217, cfr) it was more than 128 µg/mL. Further, the MIC is more than 128 µg/mL in experiment [1] (Staphylococcus epidermidis, S. epidermidis HAV# 275 Clinical, cfr); more than 128 µg/mL in experiment [1] (Staphylococcus epidermidis, S. epidermidis HAV# 276, cfr); 16 µg/mL (≈ 49.5 µM) with S. aureus MMX 3035 cErmA; 4 µg/mL (≈ 12.4 µM) in the experiment on S. pyogenes ATCC 19615 (Streptococcus pyogenes, ATCC19615, S. pyogenes HAV#004, ATCC 19615, read-out: MIC); 8 µg/mL (≈ 24.8 µM) in the experiment on E. faecalis ATCC 29212 (Enterococcus faecalis, ATCC29212, E. faecalis HAV#005, ATCC 29212, read-out: MIC); 4 µg/mL (≈ 12.4 µM) in the experiment on E. coli LptD (Escherichia coli, E. coli HAV#040, LptD, read-out: MIC). Moreover, the MIC in the experiment with S. aureus ATCC 29213 (Staphylococcus aureus, ATCC29213, S. aureus HAV#001, ATCC 29213, MP-549, read-out: MIC) amounted to 8 µg/mL (≈ 24.8 µM); with S. pneumoniae ATCC 49619 (Streptococcus pneumoniae, ATCC49619, S. pneumoniae HAV#003, ATCC 49619, read-out: MIC), 4 µg/mL (≈ 12.4 µM); in the experiment with K. oxytoca Clinical (Klebsiella oxytoca, K. oxytoca HAV#450, Clinical, read-out: MIC), 8 µg/mL (≈ 24.8 µM); in the experiment on E. coli ATCC 25922 (Escherichia coli, ATCC25922, E. coli HAV#006, ATCC 25922, read-out: MIC) it was 8 µg/mL (≈ 24.8 µM).

Turning to `CSC1O[C@H]([C@H](NC(=O)[C@H]2NC[C@@H]3C[C@H](CC(F)F)CCO[C@H]32)[C@H](C)Cl)C(O)[C@@H](O)[C@H]1O` (stereo partly shown) [FSA-10-09-093], the MIC against P. aeruginosa ATCC 27853 is more than 128 µg/mL; against S. aureus cErmA, 32 µg/mL (≈ 63.6 µM); in the experiment with E. faecium Clinical VRE, 8 µg/mL (≈ 15.9 µM); in the experiment on E. coli ΔTolC (E. coli ΔTolC), 1 µg/mL (≈ 1.99 µM); in the experiment with S. pyogenes ATCC 19615 (S. pyogenes ATCC 19615) it was 0.5 µg/mL (≈ 0.994 µM); against E. faecalis ATCC 29212 (E. faecalis ATCC 29212) it was 0.25 µg/mL (≈ 0.497 µM). The MIC in the experiment on E. coli LptD (E. coli LptD) was found to be 4 µg/mL (≈ 7.95 µM); in the experiment with S. aureus ATCC 29213 (S. aureus ATCC 29213), 0.25 µg/mL (≈ 0.497 µM); in the experiment on S. pneumoniae ATCC 49619 (S. pneumoniae ATCC 49619), 0.5 µg/mL (≈ 0.994 µM); against K. oxytoca Clinical (K. oxytoca Clinical), 16 µg/mL (≈ 31.8 µM); against E. coli ATCC 25922 (E. coli ATCC 25922) it was 16 µg/mL (≈ 31.8 µM); in the experiment on A. baumannii ATCC 19606, 128 µg/mL (≈ 254 µM).

With `CSC1O[C@H]([C@H](NC(=O)[C@H]2NC[C@@H]3C[C@H](CCF)CCO[C@H]32)[C@H](C)Cl)C(O)[C@@H](O)[C@H]1O` (stereo partly shown) [FSA-10-09-099], the MIC was more than 128 µg/mL with P. aeruginosa ATCC 27853 (setting [2]); 32 µg/mL (≈ 66 µM) in the experiment with S. aureus cErmA (setting [3]); 16 µg/mL (≈ 33 µM) with E. faecium Clinical VRE (setting [4]); 1 µg/mL (≈ 2.06 µM) in the experiment with E. coli ΔTolC (setting [5]); 0.5 µg/mL (≈ 1.03 µM) in the experiment with S. pyogenes ATCC 19615 (setting [6]); 0.5 µg/mL (≈ 1.03 µM) in the experiment with E. faecalis ATCC 29212 (setting [7]). In addition, the MIC with E. coli LptD (setting [8]) was 4 µg/mL (≈ 8.25 µM); with S. aureus ATCC 29213 (setting [9]), 0.25 µg/mL (≈ 0.515 µM); in the experiment on S. pneumoniae ATCC 49619 (setting [10]) it was 0.25 µg/mL (≈ 0.515 µM); in the experiment on K. oxytoca Clinical (setting [11]), 32 µg/mL (≈ 66 µM); with E. coli ATCC 25922 (setting [12]), 32 µg/mL (≈ 66 µM); with A. baumannii ATCC 19606 (setting [13]) it was more than 128 µg/mL.

On to `CSC1O[C@H]([C@H](NC(=O)[C@H]2NC[C@@H]3C[C@H](CC4CC4)CCO[C@H]32)[C@H](C)Cl)C(O)[C@@H](O)[C@H]1O` (stereo partly shown) [FSA-10-10-001], for which the MIC with P. aeruginosa ATCC 27853 (setting [2]) is more than 128 µg/mL; in the experiment with S. aureus cErmA (setting [3]) it was 4 µg/mL (≈ 8.11 µM); with E. faecium Clinical VRE (setting [4]) it was 2 µg/mL (≈ 4.06 µM); against E. coli ΔTolC (setting [5]) it was 0.25 µg/mL (≈ 0.507 µM); in the experiment on S. pyogenes ATCC 19615 (setting [6]) it was 0.125 µg/mL (≈ 0.254 µM); in the experiment on E. faecalis ATCC 29212 (setting [7]), 0.06 µg/mL (≈ 0.122 µM). Further, the MIC was found to be 0.5 µg/mL (≈ 1.01 µM) with E. coli LptD (setting [8]); 0.125 µg/mL (≈ 0.254 µM) with S. aureus ATCC 29213 (setting [9]); 0.125 µg/mL (≈ 0.254 µM) with S. pneumoniae ATCC 49619 (setting [10]); 8 µg/mL (≈ 16.2 µM) with K. oxytoca Clinical (setting [11]); 4 µg/mL (≈ 8.11 µM) in the experiment with E. coli ATCC 25922 (setting [12]); 16 µg/mL (≈ 32.5 µM) in the experiment on A. baumannii ATCC 19606 (setting [13]).

Values taken from US20230203081A1, “LINCOSAMIDE ANTIBIOTICS AND USES THEREOF” (President and Fellows of Harvard College, priority 2020, published 2023).
